Test results as given in patent US9597280B2, “Cosmetic compositions comprising microalgal oil” (TerraVia Holdings, Inc., priority 2013, dated 2017).

What was measured:
MatTek's EpiDerm tissue [1] = test: Thymine dimer formation in EpiDerm skin tissue model after UVB exposure; format: cell-based, human; details: positive control, topical 24 hours after UVB 300 mJ/cm2; mean ± standard deviation; significantly different from Untreated (p < 0.05)
Experimental: Oil was extracted from heterotrophic ally cultivated Chlorella protothecoides followed by refining, bleaching and deodorization. The oil was tested for its ability to prevent thymine dimerization in a skin tissue model upon exposure to UVB (ultraviolet light of the B type). The testing system used for this assay was MatTek's EpiDerm tissue, a skin model that consists of normal human-derived epidermal keratinocytes cultured to form a multilayered, highly differentiated model of the human epidermis. For this study, the tissues were exposed to UVB (300 mJ/cm2) and then treated topically for 24 hours with the test material. Following the treatment the DNA was extracted from the EpiDerm tissues and assayed for thymine dimer content. […] The primary antibody was then detected using a secondary antibody conjugated to a fluorescent dye. […] With this method, the fluorescence intensity of each sample is proportional to the amount of the thymine dimers present in the sample. […] UVB lamp intensity was measured using a UVX radiometer with a probe specific for UVB (detects 260-360 nm, max absorbance at 310 nm, calibrated at 310 nm) to determine exposure times required for the appropriate UVB dose. […] Extracted DNA was quantified via a fluorometric assay. […]

MatTek's EpiDerm tissue [2] = test: MTT (viability) assay in EpiDerm skin tissue model after UVB exposure; format: cell-based, human; details: positive control, topical 24 hours after UVB 300 mJ/cm2; mean ± standard deviation; significantly different from Untreated (p < 0.05)
From the text: Oil was extracted from heterotrophically cultivated Chlorella protothecoides followed by refining, bleaching and deodorization. A skin tissue model was used to evaluate changes in tissue viability after exposure to UVB radiation. The testing system used for this assay was MatTek's EpiDerm tissue, a skin model that consists of normal human-derived epidermal keratinocytes cultured to form a multilayered, highly differentiated model of the human epidermis. For this study, the tissues were exposed to UVB (300 mJ/cm2) and then treated topically for 24 hours with the test material. Following the treatment tissue changes in tissue viability were determined using an MTT assay. […] Reduction of MTT by mitochondria in viable cells results in the formation of insoluble purple formazin crystals that are extracted from the cells with isopropanol and quantified spectrophotometrically. […] UVB lamp intensity was measured using a UVX radiometer with a probe specific for UVB (detects 260-360 nm, max absorbance at 310 nm, calibrated at 310 nm) to determine exposure times required for the appropriate UVB dose. […] After the extraction, a 200 μl sample of the isopropanol/MTT mixture was transferred to a 96-well plate and the absorbance of the sample was read at 540 nm with a plate reader using 200 μl of isopropanol as the blank. […] Values are expressed as means±standard deviation.

In the case of `Cc1c(C)c2c(c(C)c1O)CCC(C)(C(=O)O)O2` (centres unmarked) [Trolox, 6-hydroxy-2,5,7,8-tetramethylchroman-2-carboxylic acid], the “Thymine Dimer Formation, Corrected RFU” value (MatTek's EpiDerm tissue [1]) is reported as 5198 ± 513 RFU and the “Viability (Percent of Non-UVB Exposed)” value (MatTek's EpiDerm tissue [2]) is reported as 100 ± 1.3% of Non-UVB Exposed.
